Test results reported in patent publication US10550073B2, “Benzamide derivative” (CSPC ZHONGQI PHARMACEUTICAL TECHNOLOGY (SHIJIAZHUANG) CO., …, priority 2015, dated 2020).

Key:
[1] = Pharmacokinetics experiment, oral administration to SD rats; assay type: in vivo; conditions: Sprague-Dawley (SD), rat, plasma
Method: IV. Pharmacokinetics Experiment
Experimental Method: SD rats were orally administrated the compounds and the blood samples were taken from the eye orbit of the rat sat different time intervals after administration (0.25, 0.5, 1, 2, 4, 6, 8, 24, 48 h). The collected whole blood was anticoagulant by EDTA (Ethylene Diamine Tetraacetic Acid Sodium) and 3000 g of samples were centrifugated to obtain the rats' plasma samples, methanol or ethanol was used to precipitate proteins, the drug concentration of the rats' plasma samples was determined, the drug concentration-time curve was plotted to calculate the pharmacokinetic parameters. The pharmacokinetic behavior in rats after administration was described by non-compartmental models statistical moment parameter.
The pharmacokinetic experiments were carried out for the compounds.

TNF-α = experiment: In vitro cell experiment: LPS-stimulated TNF-α release in THP-1 cells (ELISA); assay type: cell-based; conditions: Homo sapiens; TNF-α in supernatant of THP-1 cells, compound 2 h then LPS 10 μg/ml 2 h
Text: I. In Vitro Cell Experiment
Cells: human monocytic leukemia THP-1 cells (obtained from the Shanghai Cell Bank of Chinese Academy of Sciences).
Lipopolysaccharides: from Escherichia coli O55: B5, L2880 (Sigma).
Kit: Human TNF-α Elisa MAX Deluxe Set, 430206 (Biolegend)

p38a = p38a (Homo sapiens (Human), UniProt Q16539); experiment: Assay of p38 kinase activity (fluorescence, peptide substrate); assay type: biochemical; conditions: 40 nM p38a, 100 μM ATP, 90 minutes
Method: II. Assay of p38 Kinase Activity
Experimental Method: 40 nM p38a was added into a reaction buffer, which include 20 mM HEPES (4-hydroxyethylpiperazine ethanesulfonic acid), 5 mM MgCl2 and 1 mM DTT (dithiothreitol) at pH 7.4. 40 μM phosphorylated peptide substrate was added, followed by different concentrations of drugs and 100 μM ATP (adenosine triphosphate), and reacted for 90 minutes in dark. […] The IC50 values of the compounds were obtained according to the fluorescence values.

CYP450, 2C9 enzymes = CYP450, 2C9 enzymes (Homo sapiens (Human), UniProt P11712); experiment: CYP450 enzyme inhibition test in human liver microsome; assay type: in vitro ADME; conditions: CYP450 2C9, LC-MS/MS
Chain of CYP450, 2C9 enzymes (P11712 whole entry): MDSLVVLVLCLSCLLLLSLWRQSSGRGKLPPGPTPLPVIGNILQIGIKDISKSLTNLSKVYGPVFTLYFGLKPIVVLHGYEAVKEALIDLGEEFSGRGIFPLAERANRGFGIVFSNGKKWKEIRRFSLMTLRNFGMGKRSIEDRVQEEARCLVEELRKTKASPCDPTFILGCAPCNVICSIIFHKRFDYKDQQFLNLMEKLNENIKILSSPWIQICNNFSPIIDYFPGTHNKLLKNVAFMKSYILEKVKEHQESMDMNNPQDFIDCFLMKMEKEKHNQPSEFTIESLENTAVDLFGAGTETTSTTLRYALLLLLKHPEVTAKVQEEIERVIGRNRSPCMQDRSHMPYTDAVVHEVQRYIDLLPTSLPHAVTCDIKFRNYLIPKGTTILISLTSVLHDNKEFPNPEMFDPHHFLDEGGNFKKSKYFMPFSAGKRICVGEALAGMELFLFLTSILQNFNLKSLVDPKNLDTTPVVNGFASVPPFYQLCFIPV

Chain of p38a (Q16539 whole entry): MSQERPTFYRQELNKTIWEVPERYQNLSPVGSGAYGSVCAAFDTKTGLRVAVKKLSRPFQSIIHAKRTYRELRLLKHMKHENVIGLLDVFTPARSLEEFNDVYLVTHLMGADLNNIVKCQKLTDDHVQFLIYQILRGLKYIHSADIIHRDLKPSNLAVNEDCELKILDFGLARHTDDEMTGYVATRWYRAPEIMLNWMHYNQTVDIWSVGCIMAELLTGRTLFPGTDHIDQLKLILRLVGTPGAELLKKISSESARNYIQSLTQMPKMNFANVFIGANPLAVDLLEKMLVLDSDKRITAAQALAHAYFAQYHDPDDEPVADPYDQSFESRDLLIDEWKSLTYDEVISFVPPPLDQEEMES

Row | SMILES | AUC(0-t) [1] | IC50 (TNF-α) | IC50 (p38a) | IC50 (CYP450, 2C9 enzymes)
1 | Cc1c(F)cc(C(=O)NC2CC2)cc1-c1ccc(C(=O)NCC(C)(C)C)cn1 [Comparative example, 6-(5-(cyclopropylcarbamoyl)-3-fluoro-2-methylphenyl)-N-neopentylnicotinamide, reference compound] | 9630 ng·h/mL | 10 to 20 nM | – | –
2 | Cc1c(F)cc(C(=O)NC2CC2)cc1-c1ccc(C(=O)N(C)CC(C)C)nn1 [Example 3] | – | 5 to 10 nM | < 5 nM | > 50000 nM
3 | Cc1c(F)cc(C(=O)NC2CC2)cc1-c1ccc(C(=O)NC2CCCC2)nn1 [Example 4] | – | < 5 nM | < 5 nM | > 50000 nM
4 | Cc1c(F)cc(C(=O)NC2CC2)cc1-c1ccc(C(=O)NC2CCCCC2)nn1 [Example 5, N-cyclohexyl-6-(5-(cyclopropylcarbamoyl)-3-fluoro-2-methylphenyl) pyridazin-3-carboxamide] | – | < 5 nM | < 5 nM | > 50000 nM
5 | Cc1c(F)cc(C(=O)NC2CC2)cc1-c1ccc(C(=O)N(C)CC(C)C)nc1 [Example 16, 5-(5-(cyclopropylcarbamoyl)-3-fluoro-2-methylphenyl)-N-isobutyl-N-methylpyridin-2-formamide] | – | < 5 nM | < 5 nM | > 50000 nM
6 | Cc1c(F)cc(C(=O)NC2CC2)cc1-c1ccc(C(=O)NCC(C)(C)C)c(N)c1 [Example 42, 3′-amino-N^3-cyclopropyl-5-fluoro-6-methyl-N^4′-neo pentyl-[1,1′-biphenyl]-3,4′ -dicarboxamide] | – | 5 to 10 nM | – | > 50000 nM
7 | Cc1cc(-c2cc(C(=O)NC3CC3)cc(F)c2C)ccc1C(=O)NCC(C)C [Example 44, N^3-cyclopropyl-5-fluoro-N^4′-isobutyl-3′,6-dimethyl-[1,1′-biphenyl]-3,4′-dicarboxamide] | – | < 5 nM | 5 to 10 nM | > 50000 nM
8 | Cc1c(F)cc(C(=O)NC2CC2)cc1-c1ccc(C(=O)NCC(C)C)nn1 [Example 57, 6-(5-(cyclopropylcarbamoyl)-3-fluoro-2-methylphenyl)-N-isobutylpyridazin-3-carboxamide] | 22100 ng·h/mL | < 5 nM | < 5 nM | > 50000 nM
9 | CCC(C)NC(=O)c1ccc(-c2cc(C(=O)NC3CC3)cc(F)c2C)nn1 (stereo not shown) [Example 58, 6-(5-(cyclopropylcarbamoyl)-3-fluoro-2-methylphenyl)-N-(sec-butyl)pyridazin-3-carboxamide] | – | < 5 nM | < 5 nM | > 50000 nM
10 | Cc1c(F)cc(C(=O)NC2CC2)cc1-c1ccc(C(=O)NCC(C)(C)C)nn1 [Example 59, 6-(5-(cyclopropylcarbamoyl)-3-fluoro-2-methylphenyl)-N-neopentylpyridazin-3-carboxamide] | 11300 ng·h/mL | < 5 nM | < 5 nM | > 50000 nM
11 | Cc1c(F)cc(C(=O)NC2CC2)cc1-c1ccc(C(=O)NCC2CC2)nn1 [Example 61, 6-(5-(cyclopropylcarbamoyl)-3-fluoro-2-methylphenyl)-N-(cyclopropylmethyl) pyridazin-3-carboxamide] | 12200 ng·h/mL | < 5 nM | < 5 nM | > 50000 nM
